Experimental findings from patent US10961189B2, “Spiro-lactam NMDA receptor modulators and uses thereof” (Aptinyx Inc., priority 2016, dated 2021) are described below.

Like-named read-outs stand apart in the source and are kept apart here.

In one data set the test system is rats. Kind of data set: positive emotional learning (PEL) test, 50-kHz ultrasonic vocalizations. Type of data set: in vivo, rat. Conditions: PO, one hour after administration. Here is the method: Experiments were conducted as described in Burgdorf et al., “The effect of selective breeding for differential rates of 50-kHz ultrasonic vocalizations on emotional behavior in rats,” Devel. Psychobiol., 51:34-46 (2009). Rat 50-kHz ultrasonic vocalization (hedonic USVs) is a validated model for the study of positive affective state and is best elicited by rough-and-tumble play.
The PEL assay measures the acquisition of positive (hedonic) 50-kHz ultrasonic vocalizations (USVs) to a social stimulus, heterospecific rough and tumble play stimulation. Heterospecific rough-and-tumble play stimulation was administered by the experimenter's right hand. One hour after administration of test compound or vehicle negative control (0.5% sodium carboxymethyl cellulose in […] sterile saline), animals received 3 min of heterospecific rough-and-tumble play that consisted of alternating 15 sec blocks of heterospecific play and 15 sec of no-stimulation. High frequency ultrasonic vocalizations (USVs) were recorded and analyzed by sonogram with Avasoft SASlab Pro (Germany) as previously described by Burgdorf et al., “Positive emotional learning is regulated in the medial prefrontal cortex by GluN2B-containing NMDA receptors,” Neuroscience, 192:515-523 (2011). Frequency modulated 50-kHz USVs that occurred during each of the no-stimulation periods were quantified to measure PEL. Animals were not habituated to play stimulation before testing. Positive emotional learning was measured during the conditioned stimulus (CS) trials preceding the tickle unconditioned stimulus (UCS) trials. Animals received 15 second trials consisting of 6 CS and 6 UCS trials each (3 min total).
The table below summarizes the findings. As each experiment includes its own vehicle group, an example (typical) vehicle score is shown. Max effect (mean number of 50 kHz USVs per 15 seconds) is reported as ^: <6.0; *: 6-10.9; **: 11-16.9; ***: 17-22.

The next data set is described as follows: IV pharmacokinetics. The format is in vivo, Sprague Dawley rats. Conditions: rat, normal saline (* in 5% NMP, 5% Solutol HS, 90% normal saline); for Vd: read-out: Vss. From the text: The table below summarizes the results of the IV pharmacokinetics.
Where [1] appears, read: Sprague-Dawley, in vivo, iv, 2 mg/kg.
Setting [2] is: Sprague-Dawley, in vivo, iv, 2 mg/kg, read-out: C0.
[3] abbreviates: Sprague-Dawley, in vivo, intravenous 2 mg/kg.

For `CC1CCC2(CC1)CNC2=O` (racemic) [Compound AD, 7-methyl-2-azaspiro[3.5]nonan-1-one], the “Max Effect (mean number of 50 kHz USVs per 15 seconds)” value with rats (dose .001-1 mg/kg) was “*** (***: 17-22)”. For the same compound, in “IV pharmacokinetics” (setting [1]), the AUC(0-t) (commonly exposure summed from dosing to a finite time, without extrapolation to infinity) stood at 1360 ng·h/mL; the half-life (in general, the time in which the quantity being followed falls by half) was 0.79 h; the Vd was found to be 0.97 L/kg. In addition, in the data set “IV pharmacokinetics” (setting [2]), the C0 is 2060 ng/mL. Besides, the CI in the data set “IV pharmacokinetics” (intravenous 2 mg/kg) is 24.57 mL/min/kg.

For `O=C1NCC12CCC(OCc1ccccc1)CC2` (single isomer, unassigned) [AI, 7-(benzyloxy)-2-azaspiro[3.5]nonan-1-one], the “Max Effect (mean number of 50 kHz USVs per 15 seconds)” value in the data set with rats (dose .001-1 mg/kg) was “** (**: 11-16.9)”. In addition, in the data set “IV pharmacokinetics” (setting [1]), the AUC(0-t) came to 1260 ng·h/mL, the half-life was 1.37 h and the Vd amounted to 0.75 L/kg. For the same compound, the C0 in “IV pharmacokinetics” (setting [2]) stood at 4330 ng/mL. For the same compound, in “IV pharmacokinetics” (intravenous 2 mg/kg), the CI is given as 26.19 mL/min/kg.

On to `C[C@@H](O)[C@H](NC1CCC2(CC1)CNC2=O)C(N)=O` (single isomer, unassigned) [AP], for which the “Max Effect (mean number of 50 kHz USVs per 15 seconds)” value in the data set on rats (dose .1 mg/kg) is “** (**: 11-16.9)”. In the data set “IV pharmacokinetics” (intravenous 2 mg/kg, 2 mg/kg), this compound displayed an AUClast of 2941 ng·h/mL, a C0 of 6420.4 ng/mL, a CI of 11.21 mL/min/kg and a T1/2 of 2.77 h. For the same compound, in “IV pharmacokinetics” (intravenous 2 mg/kg, 2 mg/kg), the Vss (as a rule, a proportionality between amount in the body and measured concentration, not a real space) amounted to 0.92 L/kg.

Turning to `COc1ccc(CN2CC3(CCC(O)CC3)C2=O)cc1` (stereo not drawn) [AG], the “Max Effect (mean number of 50 kHz USVs per 15 seconds)” value with rats (dose .001-1 mg/kg) is reported as “** (**: 11-16.9)”. In addition, in the data set “IV pharmacokinetics” (setting [3]), the AUC(0-t) worked out at 650 ng·h/mL, the half-life was 0.4 h and the Vd was determined as 0.7 L/kg. Further, the C0 in “IV pharmacokinetics” (Sprague-Dawley, in vivo, intravenous 2 mg/kg, read-out: C0) was found to be 2650 ng/mL. In addition, the CI in “IV pharmacokinetics” (intravenous 2 mg/kg) is listed as 51.36 mL/min/kg.

Consider `O=C1NCC12CCC(O)CC2` (stereo not drawn) [AL, 7-hydroxy-2-azaspiro[3.5]nonan-1-one], for which the “Max Effect (mean number of 50 kHz USVs per 15 seconds)” value in the data set with rats (dose .001-1 mg/kg) is “** (**: 11-16.9)”. Moreover, in “IV pharmacokinetics” (setting [1]), the AUC(0-t) was found to be 6220 ng·h/mL, the half-life was 3.73 h and the Vd was 0.83 L/kg. In addition, in “IV pharmacokinetics” (setting [2]), the C0 is 3990 ng/mL. The compound further displayed a CI in “IV pharmacokinetics” (intravenous 2 mg/kg) of 5.4 mL/min/kg.
